The values below are quoted from earlier work in patent US12246026B2, “Ganaxolone for use in treatment of status epilepticus” (Marinus Pharmaceuticals, Inc., priority 2019, dated 2025).

For the data set, the system named is patients with super refractory SE. To be noted: randomized, double-blind, placebo-controlled Phase 3 trial; cited from earlier work.

As for `CC(=O)[C@H]1CC[C@H]2[C@@H]3CC[C@H]4C[C@H](O)CC[C@]4(C)[C@H]3CC[C@]12C` [brexanolone], the efficacy over placebo entry was “failed to show efficacy over placebo”.
